ChEMBL document CHEMBL1201862, “PubChem BioAssay data set” (2004)
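Following 48 hours of exposure in 96-well plates, responses at five concentrations were used to interpolate endpoints linearly. At the GI50, growth is halved.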 The source made the active and inactive calls. Cut-off read from the data, not from the text of the source: active = GI50 up to about 1.1 µM and inactive = higher.

Tests used:
Assay in all cases: growth of human tumour cells (NCI), 48 h
RXF 393 = system: RXF 393
TK-10 = system: TK-10
K562 = system: K562
SK-OV-3 = system: SK-OV-3
OVCAR-8 = system: OVCAR-8
786-0 = system: 786-0
SF-539 = system: SF-539
NCI-H460 = system: NCI-H460
NCI-H226 = system: NCI-H226
SF-268 = system: SF-268
MOLT-4 = system: MOLT-4
HCT-116 = system: HCT-116
LOX IMVI = system: LOX IMVI
HT-29 = system: HT-29
SNB-19 = system: SNB-19
OVCAR-5 = system: OVCAR-5
CCRF-CEM = system: CCRF-CEM
UACC-62 = system: UACC-62

Measured: GI50

CC(=O)Nc1ccc(-c2nnc(SCC(=O)Nc3ccc(Cl)cc3Cl)o2)cc1
inactive: RXF 393 33.7 µM | TK-10 96.8 µM | K562 28.8 µM | SK-OV-3 64.3 µM | OVCAR-8 38.2 µM | 786-0 16.1 µM | SF-539 33 µM | NCI-H460 32.9 µM | NCI-H226 29.2 µM | SF-268 44.7 µM | MOLT-4 40.8 µM | HCT-116 40.5 µM | LOX IMVI 27.8 µM | HT-29 31.8 µM | SNB-19 22.6 µM | OVCAR-5 > 100 µM | CCRF-CEM 25.4 µM

COc1ccc(/C(=N/NC(N)=O)C(c2ccc(OC)cc2)C2C(=O)Oc3ccccc32)cc1 (stereo not drawn)
inactive: RXF 393 86.1 µM | K562 > 100 µM | SK-OV-3 > 100 µM | OVCAR-8 > 100 µM | 786-0 > 100 µM | SF-539 > 100 µM | NCI-H460 > 100 µM | NCI-H226 > 100 µM | SF-268 > 100 µM | MOLT-4 > 100 µM | HCT-116 > 100 µM | LOX IMVI > 100 µM | HT-29 > 100 µM | UACC-62 > 100 µM | SNB-19 > 100 µM | OVCAR-5 > 100 µM | CCRF-CEM > 100 µM

COC(=O)N/N=C(\C)CC(=O)Nc1ccc(Cl)cc1
inactive: RXF 393 42.6 µM | TK-10 > 100 µM | K562 > 100 µM | SK-OV-3 > 100 µM | OVCAR-8 > 100 µM | 786-0 > 100 µM | SF-539 > 100 µM | NCI-H460 > 100 µM | NCI-H226 > 100 µM | SF-268 > 100 µM | MOLT-4 > 100 µM | HCT-116 > 100 µM | LOX IMVI > 100 µM | HT-29 > 100 µM | UACC-62 > 100 µM | OVCAR-5 > 100 µM | CCRF-CEM > 100 µM

Cc1nc(C(N)=S)sc1C(=O)/C=C/c1cccc(O)c1
inactive: RXF 393 > 100 µM | TK-10 > 100 µM | K562 29.9 µM | SK-OV-3 > 100 µM | OVCAR-8 > 100 µM | 786-0 > 100 µM | SF-539 > 100 µM | NCI-H460 > 100 µM | NCI-H226 > 100 µM | SF-268 87.3 µM | MOLT-4 21.9 µM | LOX IMVI 45.2 µM | HT-29 > 100 µM | UACC-62 > 100 µM | OVCAR-5 > 100 µM | CCRF-CEM 28.4 µM

CC1OC(n2cc(F)c(=O)[nH]c2=O)CCC1=O (stereo not drawn)
inactive: RXF 393 > 100 µM | TK-10 > 100 µM | K562 > 100 µM | SK-OV-3 > 100 µM | OVCAR-8 > 100 µM | 786-0 > 100 µM | SF-539 10.4 µM | NCI-H460 32.2 µM | NCI-H226 > 100 µM | SF-268 > 100 µM | MOLT-4 > 100 µM | HCT-116 44.9 µM | LOX IMVI 88.1 µM | HT-29 91 µM | UACC-62 > 100 µM | SNB-19 > 100 µM | OVCAR-5 > 100 µM | CCRF-CEM > 100 µM

OC12CC/C(=N/OCc3ccccc3)CC1c1ccccc12 (stereo not drawn)
inactive: RXF 393 > 100 µM | TK-10 > 100 µM | K562 > 100 µM | SK-OV-3 > 100 µM | OVCAR-8 > 100 µM | 786-0 > 100 µM | SF-539 > 100 µM | NCI-H460 > 100 µM | NCI-H226 > 100 µM | SF-268 > 100 µM | MOLT-4 > 100 µM | HCT-116 > 100 µM | LOX IMVI > 100 µM | HT-29 > 100 µM | UACC-62 > 100 µM | SNB-19 > 100 µM | OVCAR-5 > 100 µM | CCRF-CEM > 100 µM

CCn1c2ccccc2c(=O)c2c(OC)ccc(OC)c21
inactive: RXF 393 32.5 µM | K562 37.2 µM | SK-OV-3 64.9 µM | OVCAR-8 56.8 µM | 786-0 51.3 µM | SF-539 68.1 µM | NCI-H460 47.6 µM | NCI-H226 32.2 µM | SF-268 83.9 µM | MOLT-4 42.5 µM | HCT-116 51.1 µM | LOX IMVI 36.1 µM | HT-29 64.3 µM | UACC-62 43.6 µM | SNB-19 49.9 µM | OVCAR-5 > 61.7 µM | CCRF-CEM 48 µM

CC1(C)COC2(OC1)C1=NS(=O)(=O)CC13CCC2C3(C)C (stereo not drawn)
inactive: RXF 393 > 100 µM | TK-10 > 100 µM | K562 > 100 µM | SK-OV-3 > 100 µM | OVCAR-8 > 100 µM | 786-0 > 100 µM | SF-539 > 100 µM | NCI-H460 > 100 µM | NCI-H226 > 100 µM | SF-268 > 100 µM | MOLT-4 > 100 µM | HCT-116 > 100 µM | LOX IMVI > 100 µM | HT-29 > 100 µM | UACC-62 > 100 µM | SNB-19 > 100 µM | OVCAR-5 > 100 µM | CCRF-CEM > 100 µM
